Measurements as given in patent publication US20210254272A1, “TEXTILES HAVING ANTIMICROBIAL PROPERTIES” (Livinguard AG, priority 2015, published 2021).

Tested on: E. coli (ATCC 25922)
Experiment: AATCC Test Method 100-2012 antibacterial activity of the treated textile, after 25 washes and 12 abrasion cycles, contact time 60 minutes
Assay type: cell-based
Details: for Performance Test-Log reduction of antimicrobial performance: pad process, 2 min
Experimental: The antibacterial activity of the textile was tested in accordance with AATCC Test Method 100-2012. Prior to the test, the fabric was cut into coupons of 2×4 inches and washed separately 25 times, and exposed to 12 abrasion cycles, as per US EPA protocol 90072PA4 (described further below). The tests were made against E. coli (ATCC 25922). Contact time was 60 minutes, after inoculating with 10^8 CFU per coupon.

CCCC1COC(Cn2cncn2)(c2ccc(Cl)cc2Cl)O1 (stereo not shown) [Propiconazole, propiconazole]
Performance Test-Log reduction of antimicrobial performance (single agent 5 gm/lit, curing 180° C.): 0.98 Log | Performance Test-Log reduction of antimicrobial performance (single agent 10 gm/lit, curing 120° C.): 0.25 Log | Performance Test-Log reduction of antimicrobial performance (single agent 10 gm/lit, curing 140° C.): 0.38 Log | Performance Test-Log reduction of antimicrobial performance (single agent 10 gm/lit, curing 150° C.): 0.42 Log | Performance Test-Log reduction of antimicrobial performance (single agent 10 gm/lit, curing 160° C.): 0.56 Log | Performance Test-Log reduction of antimicrobial performance (single agent 10 gm/lit, curing 180° C.): 2.11 Log | Log reduction of antimicrobial performance (pure cotton fabric, exhaust 80° C., 60 min, dosage 0.1% o.w.f): 0.63 Log | Log reduction of antimicrobial performance (pure cotton fabric, exhaust 80° C., 60 min, dosage 0.2% o.w.f): 1.45 Log | Log reduction of antimicrobial performance (pure cotton fabric, exhaust 80° C., 60 min, dosage 0.5% o.w.f): 1.95 Log | Log reduction of antimicrobial performance (pure cotton fabric, exhaust 80° C., 60 min, dosage 0.8% o.w.f): 2.34 Log | Log reduction of antimicrobial performance (pure cotton fabric, exhaust 80° C., 60 min, dosage 1.0% o.w.f): 2.85 Log | Log reduction of antimicrobial performance (pure cotton, exhaust 80° C., 1% o.w.f, 60 min, curing 180° C., curing dwell time 0.5 min): 0.4 Log | Log reduction of antimicrobial performance (pure cotton, exhaust 80° C., 1% o.w.f, 60 min, curing 180° C., curing dwell time 1.0 min): 0.8 Log | Log reduction of antimicrobial performance (pure cotton, exhaust 80° C., 1% o.w.f, 60 min, curing 180° C., curing dwell time 1.5 min): 2.2 Log | Log reduction of antimicrobial performance (pure cotton, exhaust 80° C., 1% o.w.f, 60 min, curing 180° C., curing dwell time 2.0 min): 2.8 Log | Log reduction of antimicrobial performance (pure cotton, exhaust 80° C., 1% o.w.f, 60 min, curing 180° C., curing dwell time 2.5 min): 2.3 Log | Log reduction of antimicrobial performance (pure cotton, exhaust 80° C., 1% o.w.f, 60 min, curing 180° C., curing dwell time 3.0 min): 1.2 Log | Log reduction of antimicrobial performance (pure polyester fabric, exhaust 80° C., 60 min, curing 180° C., curing dwell time 0.5 min): 0.4 Log | Log reduction of antimicrobial performance (pure polyester fabric, exhaust 80° C., 60 min, curing 180° C., curing dwell time 1.0 min): 0.8 Log | Log reduction of antimicrobial performance (pure polyester fabric, exhaust 80° C., 60 min, curing 180° C., curing dwell time 1.5 min): 2.2 Log | Log reduction of antimicrobial performance (pure polyester fabric, exhaust 80° C., 60 min, curing 180° C., curing dwell time 2.0 min): 2.74 Log | Log reduction of antimicrobial performance (pure polyester fabric, exhaust 80° C., 60 min, curing 180° C., curing dwell time 2.5 min): 2.35 Log | Log reduction of antimicrobial performance (pure polyester fabric, exhaust 80° C., 60 min, curing 180° C., curing dwell time 3.0 min): 1.2 Log | Log reduction of antimicrobial performance (pure polyester fabric, exhaust 80° C., 60 min, dosage 0.1% o.w.f): 0.57 Log | Log reduction of antimicrobial performance (pure polyester fabric, exhaust 80° C., 60 min, dosage 0.2% o.w.f): 1.35 Log | Log reduction of antimicrobial performance (pure polyester fabric, exhaust 80° C., 60 min, dosage 0.5% o.w.f): 1.67 Log | Log reduction of antimicrobial performance (pure polyester fabric, exhaust 80° C., 60 min, dosage 0.8% o.w.f): 2.14 Log | Log reduction of antimicrobial performance (pure polyester fabric, exhaust 80° C., 60 min, dosage 1.0% o.w.f): 2.73 Log | Log reduction of antimicrobial performance (solution dosage 0.10% o.w.f, exhaust temperature 40° C., process time 60 min): 0 Log | Log reduction of antimicrobial performance (solution dosage 0.10% o.w.f, exhaust temperature 60° C., process time 60 min): 0 Log | Log reduction of antimicrobial performance (solution dosage 0.10% o.w.f, exhaust temperature 65° C., process time 60 min): 0 Log | Log reduction of antimicrobial performance (solution dosage 0.10% o.w.f, exhaust temperature 70° C., process time 60 min): 0 Log | Log reduction of antimicrobial performance (solution dosage 0.10% o.w.f, exhaust temperature 75° C., process time 60 min): 0.59 Log | Log reduction of antimicrobial performance (solution dosage 0.10% o.w.f, exhaust temperature 80° C., process time 60 min): 0.56 Log | Log reduction of antimicrobial performance (solution dosage 0.10% o.w.f, exhaust temperature 85° C., process time 60 min): 0.83 Log | Log reduction of antimicrobial performance (solution dosage 0.10% o.w.f, exhaust temperature 90° C., process time 60 min): 0.83 Log | Log reduction of antimicrobial performance (solution dosage 0.10% o.w.f, exhaust temperature 95° C., process time 60 min): 0.83 Log | Log reduction of antimicrobial performance (solution dosage 0.20% o.w.f, exhaust temperature 40° C., process time 60 min): 0 Log | Log reduction of antimicrobial performance (solution dosage 0.20% o.w.f, exhaust temperature 60° C., process time 60 min): 0.08 Log | Log reduction of antimicrobial performance (solution dosage 0.20% o.w.f, exhaust temperature 65° C., process time 60 min): 0.09 Log | Log reduction of antimicrobial performance (solution dosage 0.20% o.w.f, exhaust temperature 70° C., process time 60 min): 0.12 Log | Log reduction of antimicrobial performance (solution dosage 0.20% o.w.f, exhaust temperature 75° C., process time 60 min): 0.89 Log | Log reduction of antimicrobial performance (solution dosage 0.20% o.w.f, exhaust temperature 80° C., process time 60 min): 1.34 Log | Log reduction of antimicrobial performance (solution dosage 0.20% o.w.f, exhaust temperature 85° C., process time 60 min): 1.45 Log | Log reduction of antimicrobial performance (solution dosage 0.20% o.w.f, exhaust temperature 90° C., process time 60 min): 1.45 Log | Log reduction of antimicrobial performance (solution dosage 0.20% o.w.f, exhaust temperature 95° C., process time 60 min): 1.45 Log | Log reduction of antimicrobial performance (solution dosage 0.50% o.w.f, exhaust temperature 40° C., process time 60 min): 0 Log | Log reduction of antimicrobial performance (solution dosage 0.50% o.w.f, exhaust temperature 60° C., process time 60 min): 0.12 Log | Log reduction of antimicrobial performance (solution dosage 0.50% o.w.f, exhaust temperature 65° C., process time 60 min): 0.13 Log | Log reduction of antimicrobial performance (solution dosage 0.50% o.w.f, exhaust temperature 70° C., process time 60 min): 0.19 Log | Log reduction of antimicrobial performance (solution dosage 0.50% o.w.f, exhaust temperature 75° C., process time 60 min): 1.12 Log | Log reduction of antimicrobial performance (solution dosage 0.50% o.w.f, exhaust temperature 80° C., process time 60 min): 1.98 Log | Log reduction of antimicrobial performance (solution dosage 0.50% o.w.f, exhaust temperature 85° C., process time 60 min): 2.04 Log | Log reduction of antimicrobial performance (solution dosage 0.50% o.w.f, exhaust temperature 90° C., process time 60 min): 2.06 Log | Log reduction of antimicrobial performance (solution dosage 0.50% o.w.f, exhaust temperature 95° C., process time 60 min): 2.06 Log | Log reduction of antimicrobial performance (solution dosage 0.80% o.w.f, exhaust temperature 40° C., process time 60 min): 0 Log | Log reduction of antimicrobial performance (solution dosage 0.80% o.w.f, exhaust temperature 60° C., process time 60 min): 0.18 Log | Log reduction of antimicrobial performance (solution dosage 0.80% o.w.f, exhaust temperature 65° C., process time 60 min): 0.19 Log | Log reduction of antimicrobial performance (solution dosage 0.80% o.w.f, exhaust temperature 70° C., process time 60 min): 0.23 Log | Log reduction of antimicrobial performance (solution dosage 0.80% o.w.f, exhaust temperature 75° C., process time 60 min): 1.35 Log | Log reduction of antimicrobial performance (solution dosage 0.80% o.w.f, exhaust temperature 80° C., process time 60 min): 2.34 Log | Log reduction of antimicrobial performance (solution dosage 0.80% o.w.f, exhaust temperature 85° C., process time 60 min): 2.56 Log | Log reduction of antimicrobial performance (solution dosage 0.80% o.w.f, exhaust temperature 90° C., process time 60 min): 2.61 Log | Log reduction of antimicrobial performance (solution dosage 0.80% o.w.f, exhaust temperature 95° C., process time 60 min): 2.61 Log | Log reduction of antimicrobial performance (solution dosage 1.00% o.w.f, exhaust temperature 40° C., process time 60 min): 0 Log | Log reduction of antimicrobial performance (solution dosage 1.00% o.w.f, exhaust temperature 60° C., process time 60 min): 0.25 Log | Log reduction of antimicrobial performance (solution dosage 1.00% o.w.f, exhaust temperature 65° C., process time 60 min): 0.26 Log | Log reduction of antimicrobial performance (solution dosage 1.00% o.w.f, exhaust temperature 70° C., process time 60 min): 0.32 Log | Log reduction of antimicrobial performance (solution dosage 1.00% o.w.f, exhaust temperature 75° C., process time 60 min): 1.42 Log | Log reduction of antimicrobial performance (solution dosage 1.00% o.w.f, exhaust temperature 80° C., process time 60 min): 2.87 Log | Log reduction of antimicrobial performance (solution dosage 1.00% o.w.f, exhaust temperature 85° C., process time 60 min): 2.89 Log | Log reduction of antimicrobial performance (solution dosage 1.00% o.w.f, exhaust temperature 90° C., process time 60 min): 2.91 Log | Log reduction of antimicrobial performance (solution dosage 1.00% o.w.f, exhaust temperature 95° C., process time 60 min): 2.91 Log
